From patent US20250263404A1, “AMINOPYRIDINES AS ACTIVATORS OF PI3 KINASE” (UCL Business Ltd, priority 2021, published 2025)

What was measured:
E545K mutant of p110α = target: T1, E545K mutant of p110α (Homo sapiens, UniProt P42336, E545K); experiment: ADP-Glo kinase assay, oncogenic mutant E545K; assay type: biochemical; conditions: mutant insensitive to pY
T1 construct: Full-length p110α was expressed in a complex with full-length p85α (for biochemistry and HDX-MS); 6xHis followed by TEV protease site (N); made in house; host or cells: Spodoptera frugiperda Sf9 (plasmid OP663)
Experimental: (§1) Co-stimulation of 1938 with pY led to an additive activatory effect for G106V, but not for the N345K and E545K mutants (FIG. 1f/FIG. 22f).
Kinase reactions were performed with ADP-Glo kinase assay kit (Promega Corporation). The enzyme, substrate and compounds were diluted in reaction buffer (20 mM HEPES, 50 mM NaCl, 50 mM KCl, 3 mM MgCl2, 1 mM EGTA, 1 mM TCEP, pH 7.4). Final concentrations of PI3Kα and PI3Kδ used were 25 nM and 50 nM for PI3Kβ. Liposomes (5% brain PI(4,5)P2, 20% brain phosphatidylserine, 45% brain phosphatidylethanolamine, 15% brain phosphatidylcholine, 10% cholesterol, 5% sphingomyelin (Avanti Polar Lipids)) were used at a final concentration of 1 mg/ml. The pY sequence is ESDGG(pY)[…](pY)[…].
For characterisation of the effects of 1938 on in vitro PI3K enzymology, all reactions were performed at room temperature with 384 white-polystyrene plates (Corning #3574). The final DMSO concentration in the assay was between 0.5%-1.8%. The reaction mixture contained 2 μl PI3K enzyme, 2 μl compound and/or pY and 2 μl of liposome substrate mixed with ATP. ATP was used at a final concentration of 200 μM, unless otherwise stated. The enzyme and compounds were pre-incubated for 10 min prior to addition of substrate. […] For enzyme kinetic calculations, data was expressed as velocity (pmol of ADP generated/sec). […]

G106V mutant of p110α = target: T2, G106V mutant of p110α (Homo sapiens, UniProt P42336, G106V); experiment: FRET membrane binding, oncogenic mutant G106V; assay type: biochemical
T2 construct: Full-length p110α was expressed in a complex with full-length p85α (for biochemistry and HDX-MS); 6xHis followed by TEV protease site (N); made in house; host or cells: Spodoptera frugiperda Sf9 (plasmid JB35)
Experimental: as §1
Membrane binding assays were performed as previously published (Burke, J. E. et al. Proc Natl Acad Sci USA 109, 15259-15264 (2012)). Briefly, liposomes were prepared with 5% (w/v) brain PtdIns(4,5)P2, 20% brain phosphatidylserine, 35% brain phosphatidylethanolamine, 15% brain phosphatidylcholine, 10% cholesterol, 5% sphingomyelin, and 10% dansyl-phosphatidylserine (Avanti Polar Lipids). PI3Kα was used at a final concentration of 0.5 μM. Protein solutions were preincubated with 10 μM pY or compounds for 10 min before addition of liposomes. Liposomes were used at a final concentration of 50 μg/ml. The reaction mixture contained 5 μl enzyme, 2 μl compound and 3 μl liposomes, all diluted in 30 mM HEPES, 50 mM NaCl, pH 7.4. The reaction was allowed to proceed for 10 min at room temperature in 384 black-polystyrene plates (Corning #3544) on an orbital shaker at 200 rpm. FRET signals were measured using PHERAStar (BMG) with a 280 nm excitation filter with 350 nm and 520 nm emission filters to measure Dansyl-PS FRET emissions, respectively. FRET signal shown as I-I0, where I is the intensity at 520 nm, and 10 is the intensity at 520 nm for the solution in the absence of protein.

PI3Kα = PI3Kα (Homo sapiens, UniProt P42336); experiment: pAKT S473 ELISA in A549 cells (PI3Kα activation); assay type: cell-based; design: endogenous in cells; host or cells: A549; conditions: A549 cells
Experimental: EC50 values were determined by quantifying phosphorylation on S473 residues of Akt in A549 human adenocarcinoma cells by ELISA (enzyme linked immunoadsorbent assay, R&D Systems, DYC887BE). A549 cells were seeded into 96-well plates (50,000 cells/well) in DMEM supplemented with 10% foetal bovine serum and 1% penicillin-streptomyocin. Following 24 h in culture cells were starved for 24 h in serum-free DMEM before 15 minute treatment with a concentration response curve of compounds. Experimental compounds were diluted in DMSO into […] 1:3 concentration response curves in polypropylene V-bottom plates (SLS MIC9050). Concentration response curves were diluted to a 3× stock in serum-free DMEM. Standard 8-point concentration response curves were performed at 50, 16.7, 5.6, 1.9, 0.6, 0.2, 0.07, 0.02 μM and serum-free DMEM containing 0.5% DMSO was used as a negative control. […] A549 cells were seeded at 50,000 cells per well in 96-well plates in DMEM (10% FBS+1% P/S). The next day cells were washed once with PBS before addition of serum-free DMEM for 24 h. On the day of treatment cells, were incubated in fresh serum-free DMEM prior to treatment. Compounds solubilised to 10 mM in DMSO were diluted 1:3 in an 8-point concentration response curve in DMSO. Concentration response curves were diluted in serum-free DMEM by transfer into intermediate plates using a BRAVO liquid handler (Agilent). Intermediate plates were then used to treat cell plates using the BRAVO liquid handler. Compound concentration response curves had atop concentration of 50 μM and a final well concentration of 0.5% DMSO. Cell plates were treated for 15 min at 37° C., 5% CO2 before being washed with ice-cold PBS and lysed in lysis buffer 6 (R&D Systems #895561) and freezing at −80° C. Levels of pAKT-S473 were determined using the phospho-AKT (S473) pan-specific Duoset IC ELISA (R&D Systems #DYC887BE) in 96-well white high-binding plates (Corning #3922) according to manufacturer's instructions. Endpoint luminescence was measured using a Sense (Hidex) platereader. […] Data were transformed and EC50 data were determined by variable slope (4 parameters) non-linear regression using Prism 7 (Graphpad).

Sequence of PI3Kα (P42336 whole entry): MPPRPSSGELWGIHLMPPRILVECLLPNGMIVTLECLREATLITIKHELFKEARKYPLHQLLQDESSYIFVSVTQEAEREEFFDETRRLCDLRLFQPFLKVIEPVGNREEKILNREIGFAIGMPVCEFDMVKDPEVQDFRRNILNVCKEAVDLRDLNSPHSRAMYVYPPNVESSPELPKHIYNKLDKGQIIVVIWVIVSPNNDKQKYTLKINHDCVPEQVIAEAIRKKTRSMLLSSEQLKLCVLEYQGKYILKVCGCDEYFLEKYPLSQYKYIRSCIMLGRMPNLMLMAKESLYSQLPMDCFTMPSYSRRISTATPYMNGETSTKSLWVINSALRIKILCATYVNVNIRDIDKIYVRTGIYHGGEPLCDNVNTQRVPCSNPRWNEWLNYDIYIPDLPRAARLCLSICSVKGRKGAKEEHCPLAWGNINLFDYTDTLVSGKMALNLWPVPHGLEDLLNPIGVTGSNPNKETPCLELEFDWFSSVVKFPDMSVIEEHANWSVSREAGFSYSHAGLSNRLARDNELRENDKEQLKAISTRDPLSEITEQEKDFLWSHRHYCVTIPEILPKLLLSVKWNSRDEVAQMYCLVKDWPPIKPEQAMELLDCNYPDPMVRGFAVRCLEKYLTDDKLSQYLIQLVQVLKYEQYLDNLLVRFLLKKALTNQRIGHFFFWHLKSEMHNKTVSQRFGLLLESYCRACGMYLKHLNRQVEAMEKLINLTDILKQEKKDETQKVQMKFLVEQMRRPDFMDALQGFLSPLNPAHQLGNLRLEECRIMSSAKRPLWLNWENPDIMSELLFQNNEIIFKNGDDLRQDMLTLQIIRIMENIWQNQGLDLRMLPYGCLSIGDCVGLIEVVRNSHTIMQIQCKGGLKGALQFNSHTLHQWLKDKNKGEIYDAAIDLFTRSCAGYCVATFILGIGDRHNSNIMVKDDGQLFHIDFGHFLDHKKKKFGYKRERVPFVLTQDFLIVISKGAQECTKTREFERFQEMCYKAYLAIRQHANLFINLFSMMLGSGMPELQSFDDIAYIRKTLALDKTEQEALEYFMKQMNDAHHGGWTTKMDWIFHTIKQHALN
Sequence of PI3Kα (P27986 whole entry partner): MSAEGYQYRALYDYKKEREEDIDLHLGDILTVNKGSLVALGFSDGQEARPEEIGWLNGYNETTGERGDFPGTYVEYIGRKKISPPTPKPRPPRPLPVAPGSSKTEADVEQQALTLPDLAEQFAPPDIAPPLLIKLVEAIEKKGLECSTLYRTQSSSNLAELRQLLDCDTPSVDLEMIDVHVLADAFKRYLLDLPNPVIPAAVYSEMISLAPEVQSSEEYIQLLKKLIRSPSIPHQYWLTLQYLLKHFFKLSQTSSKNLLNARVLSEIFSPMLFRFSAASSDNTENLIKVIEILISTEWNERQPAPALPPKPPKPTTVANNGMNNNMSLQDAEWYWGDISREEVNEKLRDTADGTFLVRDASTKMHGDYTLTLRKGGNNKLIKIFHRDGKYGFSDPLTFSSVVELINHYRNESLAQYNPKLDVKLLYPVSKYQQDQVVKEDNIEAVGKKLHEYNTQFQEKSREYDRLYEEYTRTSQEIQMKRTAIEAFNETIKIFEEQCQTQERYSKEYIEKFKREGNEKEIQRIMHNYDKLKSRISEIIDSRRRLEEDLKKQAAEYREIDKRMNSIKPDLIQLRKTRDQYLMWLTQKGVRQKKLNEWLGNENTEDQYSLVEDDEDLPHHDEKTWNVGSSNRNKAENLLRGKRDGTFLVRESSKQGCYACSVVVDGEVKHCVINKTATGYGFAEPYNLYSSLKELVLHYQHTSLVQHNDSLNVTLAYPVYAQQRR
T1 sequence (P42336 whole entry E545K): as the sequence (P42336 whole entry) above, with E545K counted along it
T1 sequence (P27986 whole entry partner): as the sequence (P27986 whole entry partner) above
T2 sequence (P42336 whole entry G106V): as the sequence (P42336 whole entry) above, with G106V counted along it
T2 sequence (P27986 whole entry partner): as the sequence (P27986 whole entry partner) above

activation of E545K mutant (E545K mutant of p110α): further activated
membrane binding of G106V (G106V mutant of p110α): did not increase
EC50 (PI3Kα; EC50 for induction of pAKT, 15 min treatment): 2 to 4 µM
Emax (PI3Kα; read-out: AKT phosphorylation, % of Emax of 1 μM insulin, doses of 5-10 μM 1938): ~200%
Structure (SMILES): CCN1CCN(c2ccc(Nc3cc(Nc4cccc5c4N(C(C)=O)CC5)ccn3)cc2)CC1 [Example 1938]
